The values that follow come from patent US20200316230A1, “DEVICES AND METHODS FOR RADIOPHARMACEUTICAL SYNTHESIS” (VANDERBILT UNIVERSITY, priority 2019, published 2020).

The data set can be described thus: microPET imaging of rat brain with [^18F]fallypride produced in the microfluidic chip. The class given is in vivo. The conditions noted are these: microPET for about 2 hours, dose of about 300 μCi injected. An excerpt: To further verify the utility of the resulting [^18F]fallypride, we produced (using the integrated microfluidic chip) a dose of about 300 μCi with about 19.55 Ci/μmol (723.35 GBq/μmol) of specific activity and about 98.62% of radiochemical purity, and obtained PET data from a rat brain. The time point used to calculate the specific activity was at the end of production, namely the time when the purified [^18F]fallypride was retrieved from chip. The rat was brought to the imaging lab to habituate about 3 hours prior to imaging. Sbout 0.1 ml purified [^18F] fallypride was filtered through an about 0.45 μm filter (Millex-HV) and about 0.9 ml saline was added to formulate the PET probe used for rat injection. […] The accumulation and pharmacokinetics of [^18F]fallypride were as expected when evaluated in the rat brain.

In the case of `C=CCN1CCC[C@H]1CNC(=O)c1cc(CCC[18F])cc(OC)c1OC` [[^18F]fallypride], the “accumulation and pharmacokinetics of [^18F]fallypride in the rat brain” value is reported as “as expected”.
